The values that follow are results of earlier work, collected in article PMC8198792, “Prediction of Anticancer Peptides with High Efficacy and Low Toxicity by Hybrid Model Based on 3D Structure of Peptides” (International Journal of Molecular Sciences, 2021).

Where two headings read alike, the source gives them in different places.

The subject of this data set is cancer cell lines. Also noted: method as in 6 sources, ref CancerPPD [45] and SATPdb ||| ref CancerPPD/SATPdb ||| ref CancerPPD, SATPdb, Swissprot (PDB) ||| ref CancerPPD/SATPdb/Swissprot(PDB) ||| ref CancerPPD / SATPdb ||| ... Conditions: cited from earlier work. From the text: Supplement ijms-22-05630-s001.zip/ACPs(seguence).xlsx, sheet "D1" | column: Activity || Supplement ijms-22-05630-s001.zip/ACPs(seguence).xlsx, sheet "D2" | column: Activity || Supplement ijms-22-05630-s001.zip/ACPs(seguence).xlsx, sheet "D3" | column: Activity || (+ 2 further places)

Setting [1] is: ACPs dataset D3 (sheet "D3"), label 1 = ACP, 0 = non-ACP, ref CancerPPD/SATPdb.
Where [2] appears, read: ACPs dataset D4 (sheet "D4"), label 1 = ACP, 0 = non-ACP, ref CancerPPD / SATPdb.
Setting [3] is: ACPs dataset D5, sheet "D5", label 1 = ACP, 0 = non-ACP, ref CancerPPD [45] and SATPdb.
Where [4] appears, read: ACPs dataset D1, label 1 = ACP, 0 = non-ACP (non-anticancer AMPs from SATPdb), ref CancerPPD/SATPdb.
The mark [5] stands for this setting: ACPs dataset D4 (sheet "D4"), label 1 = ACP (CancerPPD ID), 0 = non-ACP (non-anticancer AMP, SATPdb ID), ref CancerPPD [45] and SATPdb.
The mark [6] stands for this setting: ACPs dataset D5 (sheet "D5"), label 1 = ACP (positive set), 0 = non-ACP (negative set), ref CancerPPD [45] and SATPdb.
Where [7] appears, read: ACPs dataset sheet D2, 1 = ACP (CancerPPD/SATPdb ID), 0 = non-ACP (Swissprot/PDB ID), ref CancerPPD, SATPdb, Swissprot (PDB).
[8] abbreviates: ACPs dataset D2 (supplement ACPs(seguence).xlsx, sheet D2), dataset label 1/0 (ACP / non-ACP), entries identified by Swissprot(PDB ID), ref CancerPPD/SATPdb/Swissprot(PDB).
Setting [9] is: ACPs dataset D1, 1 = ACP (positive), 0 = non-ACP (negative), label taken from databases, ref CancerPPD [45] and SATPdb.
Setting [10] is: ACPs dataset D4 (sheet "D4"), label 1 = ACP, experimentally validated ACPs, ref CancerPPD [45] and SATPdb.
[11] abbreviates: ACPs dataset D5 (sheet "D5"), label 1 = ACP (positive set), sequences with CancerPPD/SATPdb ID, ref CancerPPD, SATPdb.
Where [12] appears, read: ACPs dataset D3 (supplement sheet "D3"), 1 = ACP, 0 = non-ACP, ref CancerPPD [45] and SATPdb.

In the case of RRWCFRVCYRGRFCYRKCR [satpdb14798], the Activity under setting [1] was 0, the Activity under setting [2] is 0 and the Activity under setting [3] is recorded as 0.

Turning to “RTCESPSNKFQGVCLNSQSCAKACPSEGFSGGRCSSLRCYCSKAC [satpdb13976]”, the Activity under setting [4] is recorded as 0 and the Activity under setting [5] is listed as 0.

As for “SCASRCKGHCRARRCGYYVSVLYRGRCYCKCLRC [2EEM NMR - A 1-34]”, the Activity is 0 under setting [6] and 0 under setting [7].

Take “SDQGDVAEPKMHKTAPPFDFEAIPEEYLDDES [3B23 X-ray 2.40 C 1-32]”: the Activity is 0 under setting [6] and 0 under setting [7].

Turning to “SFGLCRLRRGFCARGRCRFPSIPIGRCSRFVQCCRRVW [1UT3 NMR - A 1-38]”, the Activity by setting is: under setting [8], 0; under setting [6], 0.

Regarding “SGSDGGVCPKILKKCRRDSDCPGACICRGNGYCG [1HA9 NMR - A 1-34]”, the Activity under setting [6] was 0 and the Activity under setting [7] is given as 0.

With “SILSTLKDVGISAIKNAGSGVLKTLLCKLNKNCEK [satpdb12439]”, the Activity reads like this: under setting [4], 0; under setting [5], 0.

As to SKWSECSRTCGGGVKFQER [satpdb16830], the Activity reads like this: under setting [9], 1; under setting [10], 1; under setting [11], 1; under setting [7], 1.

For SLIPHAINAVSAIAKHF [satpdb12892], the Activity by setting is: under setting [1], 0; under setting [2], 0; under setting [3], 0.

As for SNASVWECCSTGSWVPFTCC [satpdb10213], the Activity runs as follows: under setting [9], 0; under setting [5], 0.

Take SPPNQPSIMTFDYAKTNK [satpdb13153]: the Activity under setting [4] is listed as 0 and the Activity under setting [2] is 0.

As to SPWDIASVTAGGVQKRS [satpdb27667], the Activity by setting is: under setting [9], 1; under setting [10], 1; under setting [11], 1; under setting [7], 1.

SPWSPCSGNCSTGKQQRTR [satpdb11308]: the Activity reads like this: under setting [9], 1; under setting [10], 1; under setting [11], 1; under setting [7], 1.

Regarding SPWSQCTASCGGGVQTR [satpdb21725], the Activity is given as 1 under setting [9], 1 under setting [10], 1 under setting [11] and 1 under setting [7].

For the substance SPWSSCSVTCGDGVITRIR [satpdb28070], the Activity reads like this: under setting [9], 1; under setting [10], 1; under setting [11], 1; under setting [7], 1.

SPWTKCSATCGGGHYMRTR [satpdb19979]: the Activity by setting is: under setting [9], 1; under setting [10], 1; under setting [11], 1; under setting [7], 1.

Consider SSSGWLCTLTIECGTIICACR [satpdb10412], for which the Activity under setting [9] is reported as 0 and the Activity under setting [5] is 0.

In the case of SSTSPHRPRFS [satpdb14979], the Activity under setting [9] is on record as 1, the Activity under setting [10] was 1, the Activity under setting [11] is 1 and the Activity under setting [7] is 1.

On to “SVLGTVKDLLIGAGKSAAQSVLTANSCKLSNSC [satpdb10581]”, for which the Activity reads like this: under setting [9], 0; under setting [5], 0.

For “SVSNAATRVARTGRSRWRDVARNFMR [satpdb11117]”, the Activity under setting [9] is 0 and the Activity under setting [5] is listed as 0.

On to “SWLSKTAKKLENSAKKRISEGIAIAIQGGPR [compound 1235]”, for which the Activity under setting [9] is on record as 1, the Activity under setting [10] is given as 1, the Activity under setting [11] was 1 and the Activity under setting [7] is given as 1.

For the substance SYSMEHFRWGKPV [2IQP model - B 1-13], the Activity reads like this: under setting [6], 0; under setting [7], 0.

Regarding TAWGPCSTTCGLGMATRV [satpdb13892], the Activity is listed as 1 under setting [9], 1 under setting [10], 1 under setting [11] and 1 under setting [7].

As to TEENRELVSELKRP [satpdb12614], the Activity is, setting by setting: under setting [9], 1; under setting [10], 1; under setting [11], 1; under setting [7], 1.

With TEWSACNVRCGRGWQKRSR [satpdb12052], the Activity is recorded as 1 under setting [9], 1 under setting [10], 1 under setting [11] and 1 under setting [7].

With TEWSACSKTCGMGISTRV [satpdb13253], the Activity is given as 1 under setting [9], 1 under setting [10], 1 under setting [11] and 1 under setting [7].

Consider TEWSVCNSRCGRGYQKRTR [satpdb19902], for which the Activity reads like this: under setting [9], 1; under setting [10], 1; under setting [11], 1; under setting [7], 1.

For TEWTACSKSCGMGFSTRV [satpdb28517], the Activity under setting [9] is given as 1, the Activity under setting [10] is 1, the Activity under setting [11] is recorded as 1 and the Activity under setting [7] is 1.

On to “TFRAFLSSRLQDLYSIVRRADRAAV [compound 4202]”, for which the Activity runs as follows: under setting [9], 1; under setting [10], 1; under setting [11], 1; under setting [7], 1.

For TGASSEEEDPF [satpdb18128], the Activity is 1 under setting [9], 1 under setting [10], 1 under setting [11] and 1 under setting [7].

As to “THRPPMWSPVWPGGGKLlLKlLkkLLKlLKKK [compound 4603]”, the Activity is given as 1 under setting [12], 1 under setting [5] and 1 under setting [6].

Turning to “TITLSTCAILSKPLGNNGYLCTVTKECMPSSCN [satpdb12698]”, the Activity was 0 under setting [4] and 0 under setting [5].

TKPRKTKPRKTKPRKTKPR [compound 5055]: the Activity was 1 under setting [9], 1 under setting [10], 1 under setting [11] and 1 under setting [7].

TLPFAYCNIHQVCHYAQRNDRSYWL [satpdb12859]: the Activity is listed as 1 under setting [9], 1 under setting [10], 1 under setting [11] and 1 under setting [7].

For the substance TMPFLFCNVNDCNFASRNDYSYWL [satpdb12405], the Activity by setting is: under setting [9], 1; under setting [10], 1; under setting [11], 1; under setting [7], 1.

As to “TNYGNGVGVPDAIMAGIIKLIFIFNIRQGYNFGKKAT [satpdb11292]”, the Activity is recorded as 0 under setting [9] and 0 under setting [5].

For “TSPQREATCTSEVSGCPKIYNPVCGTDGITYSNECVLCSENKKRQTPVLIQKSGPC [1TGS X-ray 1.80,I,1-56]”, the Activity by setting is: under setting [8], 0; under setting [3], 0.

For TSWSPCSASCGGGHYQRTR [satpdb16504], the Activity under setting [9] is on record as 1, the Activity under setting [10] was 1, the Activity under setting [11] is on record as 1 and the Activity under setting [7] was 1.

Take TSWSQCSKTCGTGISTRV [satpdb19109]: the Activity under setting [9] is given as 1, the Activity under setting [10] is listed as 1, the Activity under setting [11] is 1 and the Activity under setting [7] was 1.

Consider TTITGKKCQSWAAMFPHRHSKT [satpdb18336], for which the Activity under setting [9] is listed as 1, the Activity under setting [10] is 1, the Activity under setting [11] is reported as 1 and the Activity under setting [7] is reported as 1.

With “VAKCTEESGGKYFVFCCYKPTRICYMNEQKCESTCIGK [satpdb10361]”, the Activity is, setting by setting: under setting [9], 0; under setting [5], 0.

VAKKLAKLAKKLAKLAL [compound 1919]: the Activity runs as follows: under setting [12], 1; under setting [5], 1; under setting [6], 1.

In the case of “VDENAEDTHGLCGEKTCSPAQVCLNNECACTAIRCMIFCPNGFKVDENGCEYPCTCA [3BG4 X-ray 2.50 D 1-57]”, the Activity is listed as 0 under setting [8] and 0 under setting [3].

As to VGSGGCMFGNGK [satpdb10083], the Activity under setting [9] is 1, the Activity under setting [10] is recorded as 1, the Activity under setting [11] was 1 and the Activity under setting [7] is 1.

Consider VIFEWTLLQVLSESDQDQSLEVFLT [satpdb18497], for which the Activity is on record as 1 under setting [9], 1 under setting [10], 1 under setting [11] and 1 under setting [7].
